Among the targets are D(2) dopamine receptor (Rattus norvegicus, UniProt P61169); Histamine H1 receptor (Rattus norvegicus, UniProt P31390); D(1A) dopamine receptor (Rattus norvegicus, UniProt P18901).
Assay [1] concerns the target T1, Alpha-1A adrenergic receptor (Rattus norvegicus, UniProt P43140).
T1 sequence (P43140 whole entry): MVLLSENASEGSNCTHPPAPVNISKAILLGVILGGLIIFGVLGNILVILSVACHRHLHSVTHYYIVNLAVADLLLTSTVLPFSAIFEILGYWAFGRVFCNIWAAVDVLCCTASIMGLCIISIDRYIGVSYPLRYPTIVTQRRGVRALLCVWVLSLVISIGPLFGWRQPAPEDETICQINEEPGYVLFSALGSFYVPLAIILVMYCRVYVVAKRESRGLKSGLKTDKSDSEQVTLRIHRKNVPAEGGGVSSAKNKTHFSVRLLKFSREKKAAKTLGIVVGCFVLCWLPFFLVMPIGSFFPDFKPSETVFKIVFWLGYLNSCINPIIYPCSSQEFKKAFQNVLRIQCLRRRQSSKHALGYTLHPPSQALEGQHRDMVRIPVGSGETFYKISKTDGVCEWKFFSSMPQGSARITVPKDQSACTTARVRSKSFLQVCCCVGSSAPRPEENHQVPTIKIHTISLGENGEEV

Assay [2] deals with T2, 5-hydroxytryptamine receptor 2C (Homo sapiens, UniProt P28335).
T2 sequence (P28335 whole entry): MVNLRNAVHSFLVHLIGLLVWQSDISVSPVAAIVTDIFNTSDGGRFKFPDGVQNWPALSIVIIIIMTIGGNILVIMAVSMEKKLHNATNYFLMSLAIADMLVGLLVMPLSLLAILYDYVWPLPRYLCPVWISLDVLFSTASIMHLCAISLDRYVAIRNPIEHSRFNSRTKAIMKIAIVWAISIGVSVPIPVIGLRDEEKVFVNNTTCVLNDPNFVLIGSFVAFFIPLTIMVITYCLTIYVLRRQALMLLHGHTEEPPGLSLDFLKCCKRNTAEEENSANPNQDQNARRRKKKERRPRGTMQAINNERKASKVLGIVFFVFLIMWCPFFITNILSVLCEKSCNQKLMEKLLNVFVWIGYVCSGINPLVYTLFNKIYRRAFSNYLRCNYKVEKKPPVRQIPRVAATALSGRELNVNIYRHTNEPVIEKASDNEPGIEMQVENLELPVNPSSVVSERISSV

The target in assay [3] is 5-hydroxytryptamine receptor 2B (Homo sapiens, UniProt P41595).
Sequence of 5-hydroxytryptamine receptor 2B (P41595 whole entry): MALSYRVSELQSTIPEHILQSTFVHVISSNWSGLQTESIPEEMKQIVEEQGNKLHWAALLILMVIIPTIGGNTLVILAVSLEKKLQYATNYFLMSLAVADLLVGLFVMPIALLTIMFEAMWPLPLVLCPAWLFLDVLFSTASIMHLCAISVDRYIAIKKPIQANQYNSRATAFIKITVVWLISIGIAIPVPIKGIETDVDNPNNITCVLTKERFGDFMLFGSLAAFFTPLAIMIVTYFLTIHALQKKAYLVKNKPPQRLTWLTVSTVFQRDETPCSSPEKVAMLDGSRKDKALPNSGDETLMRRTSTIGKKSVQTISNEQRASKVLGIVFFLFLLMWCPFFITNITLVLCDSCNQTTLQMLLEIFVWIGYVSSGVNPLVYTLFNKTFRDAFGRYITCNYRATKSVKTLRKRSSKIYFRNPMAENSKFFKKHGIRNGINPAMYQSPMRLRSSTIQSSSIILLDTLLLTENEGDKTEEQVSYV
Assay [4] deals with T3, Alpha-2C adrenergic receptor (Rattus norvegicus, UniProt P22086).
T3 sequence (P22086 whole entry): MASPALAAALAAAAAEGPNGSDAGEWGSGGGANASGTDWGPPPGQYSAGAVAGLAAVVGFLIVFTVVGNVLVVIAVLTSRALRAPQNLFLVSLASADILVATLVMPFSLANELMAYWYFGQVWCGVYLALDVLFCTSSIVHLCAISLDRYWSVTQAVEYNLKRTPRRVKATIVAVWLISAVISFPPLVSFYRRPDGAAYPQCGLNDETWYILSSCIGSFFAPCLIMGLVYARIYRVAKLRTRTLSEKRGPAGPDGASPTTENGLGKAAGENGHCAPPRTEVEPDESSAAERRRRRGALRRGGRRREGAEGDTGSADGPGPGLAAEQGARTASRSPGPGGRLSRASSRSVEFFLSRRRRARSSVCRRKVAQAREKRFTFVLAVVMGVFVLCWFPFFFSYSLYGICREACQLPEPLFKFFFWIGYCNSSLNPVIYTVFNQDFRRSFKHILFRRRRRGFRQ

Assay [5] deals with T4, 5-hydroxytryptamine receptor 1F (Homo sapiens, UniProt P30939).
T4 sequence (P30939 whole entry): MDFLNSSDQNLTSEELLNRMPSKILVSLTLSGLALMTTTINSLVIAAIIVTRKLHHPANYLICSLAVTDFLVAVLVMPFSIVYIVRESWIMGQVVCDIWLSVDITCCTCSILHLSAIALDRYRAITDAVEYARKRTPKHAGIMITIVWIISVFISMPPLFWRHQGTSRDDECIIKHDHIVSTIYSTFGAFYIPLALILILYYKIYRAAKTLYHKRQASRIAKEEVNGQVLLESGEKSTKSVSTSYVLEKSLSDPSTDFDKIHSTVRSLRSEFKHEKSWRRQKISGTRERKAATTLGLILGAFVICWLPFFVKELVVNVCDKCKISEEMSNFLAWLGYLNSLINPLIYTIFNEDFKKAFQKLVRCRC

Assay [6] addresses Beta-2 adrenergic receptor (Rattus norvegicus, UniProt P10608).
In assay [7] the target is 5-hydroxytryptamine receptor 2A (Homo sapiens, UniProt P28223).
Sequence of 5-hydroxytryptamine receptor 2A (P28223 whole entry): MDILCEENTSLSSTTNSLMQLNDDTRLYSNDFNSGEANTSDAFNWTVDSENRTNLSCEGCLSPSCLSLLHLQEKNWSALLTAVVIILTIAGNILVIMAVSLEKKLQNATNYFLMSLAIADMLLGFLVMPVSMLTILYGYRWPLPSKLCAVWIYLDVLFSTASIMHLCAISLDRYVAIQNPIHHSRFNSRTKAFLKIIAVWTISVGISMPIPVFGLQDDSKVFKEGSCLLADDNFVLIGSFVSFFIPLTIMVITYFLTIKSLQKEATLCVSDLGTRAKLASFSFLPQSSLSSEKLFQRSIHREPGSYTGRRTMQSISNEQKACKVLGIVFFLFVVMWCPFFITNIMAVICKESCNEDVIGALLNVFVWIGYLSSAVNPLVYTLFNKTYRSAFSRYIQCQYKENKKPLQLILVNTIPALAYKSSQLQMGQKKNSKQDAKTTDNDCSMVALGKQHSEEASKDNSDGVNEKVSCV
In assay [8] the target is 5-hydroxytryptamine receptor 7 (Homo sapiens, UniProt P34969).
Sequence of 5-hydroxytryptamine receptor 7 (P34969 whole entry): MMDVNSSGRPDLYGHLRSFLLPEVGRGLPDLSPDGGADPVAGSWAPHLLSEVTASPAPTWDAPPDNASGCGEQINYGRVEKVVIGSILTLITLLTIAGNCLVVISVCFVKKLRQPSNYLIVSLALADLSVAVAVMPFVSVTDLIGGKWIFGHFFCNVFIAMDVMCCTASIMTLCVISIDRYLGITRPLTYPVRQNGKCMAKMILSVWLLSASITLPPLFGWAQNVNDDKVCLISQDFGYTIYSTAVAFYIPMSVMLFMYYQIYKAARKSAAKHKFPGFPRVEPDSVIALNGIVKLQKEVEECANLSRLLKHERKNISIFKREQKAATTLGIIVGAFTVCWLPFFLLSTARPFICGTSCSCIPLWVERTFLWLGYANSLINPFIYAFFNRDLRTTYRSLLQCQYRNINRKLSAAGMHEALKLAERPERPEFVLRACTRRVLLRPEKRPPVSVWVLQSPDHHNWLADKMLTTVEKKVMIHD
Assay [9] has as its target T5, Muscarinic acetylcholine receptor M2 (Rattus norvegicus, UniProt P10980).
T5 sequence (P10980 whole entry): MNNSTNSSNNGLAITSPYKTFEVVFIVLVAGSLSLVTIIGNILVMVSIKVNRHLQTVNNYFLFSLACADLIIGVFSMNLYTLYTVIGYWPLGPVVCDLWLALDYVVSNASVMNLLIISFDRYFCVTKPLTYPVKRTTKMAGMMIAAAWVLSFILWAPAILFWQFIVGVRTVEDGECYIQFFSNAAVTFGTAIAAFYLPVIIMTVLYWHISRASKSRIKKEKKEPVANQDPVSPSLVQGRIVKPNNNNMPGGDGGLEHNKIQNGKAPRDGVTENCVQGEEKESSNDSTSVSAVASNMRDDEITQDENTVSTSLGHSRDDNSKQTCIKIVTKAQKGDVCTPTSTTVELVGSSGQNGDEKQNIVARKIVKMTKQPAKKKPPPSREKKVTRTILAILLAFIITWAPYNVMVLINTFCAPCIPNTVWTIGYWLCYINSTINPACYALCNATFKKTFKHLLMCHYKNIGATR

Assay [10] has as its target 5-hydroxytryptamine receptor 1D (Homo sapiens, UniProt P28221).
The target of assay [11] is Gamma-aminobutyric acid receptor subunit alpha-1 (Rattus norvegicus, UniProt P62813).
Sequence of Gamma-aminobutyric acid receptor subunit alpha-1 (P62813 whole entry): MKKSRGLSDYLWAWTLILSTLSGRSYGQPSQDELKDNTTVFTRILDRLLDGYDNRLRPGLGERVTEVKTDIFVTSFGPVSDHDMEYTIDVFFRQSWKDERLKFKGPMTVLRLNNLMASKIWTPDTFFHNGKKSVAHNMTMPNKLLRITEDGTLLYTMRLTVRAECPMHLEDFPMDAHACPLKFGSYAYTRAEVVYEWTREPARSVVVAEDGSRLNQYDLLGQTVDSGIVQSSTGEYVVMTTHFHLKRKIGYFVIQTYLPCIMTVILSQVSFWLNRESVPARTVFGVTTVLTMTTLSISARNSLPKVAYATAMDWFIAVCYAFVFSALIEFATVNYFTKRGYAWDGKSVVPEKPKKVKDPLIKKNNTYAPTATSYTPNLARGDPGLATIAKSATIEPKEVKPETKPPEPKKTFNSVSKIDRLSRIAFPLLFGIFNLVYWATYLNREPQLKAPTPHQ

In BindingDB's records for doi:10.1016/s0024-3205(97)00885-0 (Eli Lilly, 1997) one finds Ki data, which are given here for 1 compound.

Sequence of 5-hydroxytryptamine receptor 1D (P28221 whole entry): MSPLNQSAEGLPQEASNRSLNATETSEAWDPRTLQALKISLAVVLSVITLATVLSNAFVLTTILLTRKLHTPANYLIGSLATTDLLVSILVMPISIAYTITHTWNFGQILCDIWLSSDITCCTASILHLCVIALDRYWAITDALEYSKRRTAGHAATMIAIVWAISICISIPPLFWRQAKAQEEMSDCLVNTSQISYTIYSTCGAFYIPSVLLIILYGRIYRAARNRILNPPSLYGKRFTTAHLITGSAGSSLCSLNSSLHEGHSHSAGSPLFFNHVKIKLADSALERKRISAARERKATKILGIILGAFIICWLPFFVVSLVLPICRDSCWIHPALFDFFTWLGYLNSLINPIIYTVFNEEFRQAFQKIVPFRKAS
Sequence of D(2) dopamine receptor (P61169 whole entry): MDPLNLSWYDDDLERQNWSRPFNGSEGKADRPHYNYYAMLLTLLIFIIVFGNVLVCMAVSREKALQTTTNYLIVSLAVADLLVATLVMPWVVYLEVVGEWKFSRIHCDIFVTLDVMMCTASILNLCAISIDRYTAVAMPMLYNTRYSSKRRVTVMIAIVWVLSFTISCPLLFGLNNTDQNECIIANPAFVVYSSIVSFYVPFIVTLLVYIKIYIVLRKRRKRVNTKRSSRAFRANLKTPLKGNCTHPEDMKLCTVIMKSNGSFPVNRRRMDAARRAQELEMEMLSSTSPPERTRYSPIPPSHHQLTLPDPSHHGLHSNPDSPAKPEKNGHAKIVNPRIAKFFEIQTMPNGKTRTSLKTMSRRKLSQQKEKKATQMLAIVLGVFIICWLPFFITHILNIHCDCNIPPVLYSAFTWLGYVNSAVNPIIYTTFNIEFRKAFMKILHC
Sequence of Histamine H1 receptor (P31390 whole entry): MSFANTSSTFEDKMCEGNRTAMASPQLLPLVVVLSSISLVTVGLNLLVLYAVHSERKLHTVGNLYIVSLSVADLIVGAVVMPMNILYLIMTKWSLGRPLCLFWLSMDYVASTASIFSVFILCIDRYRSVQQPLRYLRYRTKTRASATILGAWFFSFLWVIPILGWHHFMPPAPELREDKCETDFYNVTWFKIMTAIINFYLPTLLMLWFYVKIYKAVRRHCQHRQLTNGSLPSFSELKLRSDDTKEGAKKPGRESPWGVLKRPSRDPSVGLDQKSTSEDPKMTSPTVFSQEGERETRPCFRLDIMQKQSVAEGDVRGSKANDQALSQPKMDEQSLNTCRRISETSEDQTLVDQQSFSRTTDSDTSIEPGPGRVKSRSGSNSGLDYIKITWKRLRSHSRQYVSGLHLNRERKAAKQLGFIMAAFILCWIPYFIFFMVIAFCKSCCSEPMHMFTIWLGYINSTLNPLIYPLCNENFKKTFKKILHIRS
Sequence of Beta-2 adrenergic receptor (P10608 whole entry): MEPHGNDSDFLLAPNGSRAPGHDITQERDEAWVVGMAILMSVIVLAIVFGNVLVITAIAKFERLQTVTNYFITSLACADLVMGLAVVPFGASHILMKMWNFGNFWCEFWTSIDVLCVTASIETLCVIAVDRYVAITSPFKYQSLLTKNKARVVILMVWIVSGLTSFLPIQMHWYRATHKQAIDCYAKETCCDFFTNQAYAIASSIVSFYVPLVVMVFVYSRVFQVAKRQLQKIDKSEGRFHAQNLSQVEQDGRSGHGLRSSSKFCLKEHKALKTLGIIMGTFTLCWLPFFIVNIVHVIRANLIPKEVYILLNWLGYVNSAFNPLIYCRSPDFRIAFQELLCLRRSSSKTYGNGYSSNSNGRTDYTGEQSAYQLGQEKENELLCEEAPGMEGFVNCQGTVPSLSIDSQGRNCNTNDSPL
Sequence of D(1A) dopamine receptor (P18901 whole entry): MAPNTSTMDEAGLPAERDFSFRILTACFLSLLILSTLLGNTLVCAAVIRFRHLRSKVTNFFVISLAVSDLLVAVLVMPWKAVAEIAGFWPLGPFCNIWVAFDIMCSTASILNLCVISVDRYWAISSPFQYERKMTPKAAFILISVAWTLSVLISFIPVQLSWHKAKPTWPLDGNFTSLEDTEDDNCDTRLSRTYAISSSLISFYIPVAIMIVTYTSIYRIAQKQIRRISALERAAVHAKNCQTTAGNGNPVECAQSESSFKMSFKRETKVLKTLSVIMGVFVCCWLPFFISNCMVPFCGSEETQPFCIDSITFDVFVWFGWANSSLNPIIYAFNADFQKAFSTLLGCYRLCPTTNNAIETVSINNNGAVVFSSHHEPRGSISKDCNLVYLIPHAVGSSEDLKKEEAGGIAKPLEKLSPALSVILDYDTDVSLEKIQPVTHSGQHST

With `CN(C)C1CCc2[nH]c3ccc(NC(=O)c4ccc(F)cc4)cc3c2C1` (centres undefined) [NSC_5311097], the Ki is 5.06 µM in assay [1]; 3.5 µM in assay [2]; over 10 µM on D(2) dopamine receptor; 1.69 µM in [3]; 3.69 µM in assay [4]; 0.006 µM in [5]. Further, the Ki in [6] was over 10 µM; in assay [7], 3.94 µM; in assay [8], 4.85 µM; in assay [9], over 10 µM; in [10], 0.575 µM; on Histamine H1 receptor, over 10 µM. Further, the Ki (on D(1A) dopamine receptor; in assay [11]) was over 10 µM throughout.

In general, Ki refers to the dissociation constant of the complex between target and ligand, obtained from inhibition or displacement.
